# According to patent US20250269039A1, “THERAPEUTIC-OLIGONUCLEOTIDES ACTIVATED BY NUCLEASES” (priority 2020, published 2025):
# How the values were obtained:
# [1] = test system: S. aureus ATCC 1707 (MRSA); test: Broth microdilution MIC and growth inhibition; format: cell-based, Staphylococcus aureus
# Source text: (§1) Bacteria strains. S. aureus NCTC 12493 (MRSA), S. aureus ATCC 29213 (MSSA), S. aureus ATCC 43300 (MRSA), S. aureus ATCC 1707 (MRSA), S. aureus ATCC 1717 (MRSA), S. aureus ATCC 1747 (MRSA), S. aureus ATCC 1761 (MRSA), S. aureus ATCC 1766 (MRSA), S. aureus ATCC 1768 (MRSA), S. epidermidis ATCC 35984, E. coli ATCC 25922, K. pneumoniae ATCC 13883, P. mirabilis ATCC 25933, S. enterica ATCC 14028 and P. aeruginosa ATCC 10145 strains were used in this study. Bacteria were initially inoculated onto tryptone soy agar with 5% defibrinated sheep blood (Thermo Fisher Scientific, Inc., Waltham, MA, USA) and incubated at 37° C. for 24 hours. Then, single colonies of each strain were transferred to tryptone soy broth (Thermo Fisher Scientific) for the nuclease activity assay or antimicrobial susceptibility testing, respectively.
# (§2) Antimicrobial susceptibility testing. Minimal inhibitory concentrations (MIC) of all nucleoside analogues and TOUCANs against each bacteria strain were determined using broth microdilution method. A single colony obtained from overnight culture on tryptone soy agar with 5% defibrinated sheep blood was inoculated in cation-adjusted Mueller Hinton Broth and adjusted to 10^6 CFU/mL. TOUCANs were prepared in PBS+/+ (treatment) and serial dilutions were made in 96-well polystyrene round bottom microwell plates with 50 μL final volume for each concentration. PBS+/+ was used as untreated control. Next, 50 μL bacteria solutions were added to each well to a final bacteria concentration of 5×10^5 CFU/mL. Plates were incubated at 37° C. in Cytation 1 Cell Imaging Multimode Reader. Growth curves were obtained by measuring optical densities at 600 nm every 10 minutes for 18 hours using Cytation 1 Cell Imaging Multimode Reader. In addition, visual inspection of the plates was carried out after 18 hours and photographs were taken. MICs were defined as the lowest drug concentration in the microwell at which bacterial growth was not visible at the end of the incubation period. Besides MIC determination, specificity of TOUCAN 7mGe was also shown with subcultures on chromogenic media. For this purpose, 5 μL of different concentrations of each strain were inoculated onto CHROM agar Orientation Media (Becton Dickinson) and the bacterial growth of each bacteria strain tested was observed by naked eye after incubation at 37° C. for 24 hours. Finally, photographs of the chromogenic media were taken.
# [2] = test system: S. aureus ATCC 1717 (MRSA); test: Broth microdilution MIC and growth inhibition; format: cell-based, Staphylococcus aureus
# Source text: as §1, §2
# [3] = test system: S. aureus ATCC 1747 (MRSA); test: Broth microdilution MIC and growth inhibition; format: cell-based, Staphylococcus aureus
# Source text: as §1, §2
# [4] = test system: S. aureus ATCC 1761 (MRSA); test: Broth microdilution MIC and growth inhibition; format: cell-based, Staphylococcus aureus
# Source text: as §1, §2
# [5] = test system: S. aureus ATCC 1766 (MRSA); test: Broth microdilution MIC and growth inhibition; format: cell-based, Staphylococcus aureus; conditions: S. aureus ATCC 1766 (MRSA)
# Source text: as §1, §2
# [6] = test system: S. aureus ATCC 1768 (MRSA); test: Broth microdilution MIC and growth inhibition; format: cell-based, Staphylococcus aureus
# Source text: as §1, §2
# [7] = test system: S. aureus ATCC 29213 (MSSA); test: Broth microdilution MIC and growth inhibition; format: cell-based, Staphylococcus aureus; conditions: S. aureus ATCC 29213 (MSSA)
# Source text: as §1, §2
# [8] = test system: S. aureus ATCC 43300 (MRSA); test: Broth microdilution MIC and growth inhibition; format: cell-based, Staphylococcus aureus
# Source text: as §1, §2
# [9] = test system: S. aureus NCTC 12493 (MRSA); test: Broth microdilution MIC and growth inhibition; format: cell-based, Staphylococcus aureus; conditions: for growth inhibition, dose response: NCTC-12493 (MRSA), FIG. 5a-b
# Source text: as §1, §2
# [10] = test system: S. epidermidis ATCC 35984; test: Broth microdilution MIC and growth inhibition (control bacteria); format: cell-based, Staphylococcus epidermidis
# Source text: as §1, §2
# [11] = test system: E. coli ATCC 25922; test: as above; format: cell-based, Escherichia coli
# Source text: as §1, §2
# [12] = test system: K. pneumoniae ATCC 13883; test: as above; format: cell-based
# Source text: as §1, §2
# [13] = test system: P. aeruginosa ATCC 10145; test: as above; format: cell-based
# Source text: as §1, §2
# [14] = test system: S. enterica ATCC 14028; test: as above; format: cell-based
# Source text: as §1, §2
# [15] = test system: P. mirabilis ATCC 25933; test: as above; format: cell-based, Proteus mirabilis
# Source text: as §1, §2
# [16] = test system: S. aureus; test: Growth inhibition curves / MICs in S. aureus cultures (strain not named or summary over strains); format: cell-based, Staphylococcus aureus
# Description: as §2
# [17] = test system: S. aureus; test: Specificity study by visual inspection on chromogenic media, targeted bacteria; format: cell-based, Staphylococcus aureus; conditions: FIG. 1e
# Description: as §2, with “For this purpose, 5 μL of different concentrations of each strain were inoculated onto CHROM agar Orientation Media (Becton Dickinson) and the bacterial growth of each bacteria strain tested was observed by naked eye after incubation at 37° C. for 24 hours. Finally, photographs of the chromogenic media were taken.” left out
# [18] = test system: other pathogenic bacteria; test: Specificity study by visual inspection on chromogenic media, non-targeted control bacteria; format: cell-based; conditions: all concentrations tested, FIG. 1e
# Description: as §2, with “For this purpose, 5 μL of different concentrations of each strain were inoculated onto CHROM agar Orientation Media (Becton Dickinson) and the bacterial growth of each bacteria strain tested was observed by naked eye after incubation at 37° C. for 24 hours. Finally, photographs of the chromogenic media were taken.” left out
# [19] = test system: Pancreatic cancer cells (ASPC-1); test: Anti-cancer drug susceptibility testing, pancreatic cancer cells, 72 h; format: cell-based; conditions: 72 h cultures; Gemcitabine alone, TOUCAN 7mGe spiked with MN; FIG. 13
# Description: (§3) Anti-cancer drug susceptibility testing for TOUCAN 7mGe. Gemcitabine and equivalent 7mGe solutions were prepared as explained before. Then, 7mGe was pre-exposed to 10 μl of 10 U MN for 1 hour at 37° C. (7mGe+MN). 100 μl of both drugs (Gemcitabine and 7mGe+MN) were added to the related wells and serially diluted using PBS+/+making the final concentrations between 100-2 μg/μl. Breast cancer cells (MDAMB231) and Pancreatic cancer cells (ASPC-1) were prepared as 10.000 cells/ml and 100 μl cell suspensions were added to each well. The plate was incubated at 37° C. for 72 hours. At 48th hour of incubation, 100 μl CyQUANT® Direct Cell Proliferation Assay kit was added to each well. Cell counts and images were taken at the end of 72 hours incubation period using Cytation 1 Cell Imaging Multi-Mode Reader.
# [20] = test system: Breast cancer cells (MDAMB231); test: Anti-cancer drug susceptibility testing, breast cancer cells, 72 h; format: cell-based; conditions: 72 h of treatment; Gemcitabine alone, TOUCAN 7mGe spiked with MN; FIG. 14
# Description: as §3
substance,measurement,setting,value
mU-mU-mU-mU-T-T-Ge [TOUCAN 7mGe],MIC,"[1]; 18 h, TOUCAN as NA equivalent",>40 mg/L
same,TOUCAN % Growth inhibition,"[1]; mean ± SD, n = 3",61.5 ± 0.5%
same,MIC,"[2]; 18 h, TOUCAN as NA equivalent",>40 mg/L
same,TOUCAN % Growth inhibition,"[2]; mean ± SD, n = 3",72.9 ± 1.2%
same,MIC,"[3]; 18 h, TOUCAN as NA equivalent",>40 mg/L
same,TOUCAN % Growth inhibition,"[3]; mean ± SD, n = 3",44.9 ± 0.7%
same,TOUCAN MIC/NA MIC TOUCAN Efficacy Ratio (TER),[4],2500
same,MIC,"[4]; 18 h, TOUCAN as NA equivalent",40 mg/L
same,TOUCAN % Growth inhibition,"[4]; mean ± SD, n = 3",90.1%
same,MIC,"[5]; 18 h, TOUCAN as NA equivalent",>40 mg/L
same,TOUCAN % Growth inhibition,"[5]; mean ± SD, n = 3",86.2 ± 0.9%
same,MIC,"[6]; 18 h, TOUCAN as NA equivalent",>40 mg/L
same,TOUCAN % Growth inhibition,"[6]; mean ± SD, n = 3",61.9 ± 1.1%
same,MIC,"[7]; 18 h, TOUCAN as NA equivalent",>40 mg/L
same,TOUCAN % Growth inhibition,"[7]; mean ± SD, n = 3",52.5 ± 1.1%
same,MIC,"[8]; 18 h, TOUCAN as NA equivalent",>40 mg/L
same,TOUCAN % Growth inhibition,"[8]; mean ± SD, n = 3",66.6 ± 1.6%
same,"growth inhibition, dose response",[9]; 1.25 and 2.5 g/mL,partial effect
same,"growth inhibition, dose response",[9]; concentrations from 5 to 40 μg/mL,96%
same,TOUCAN MIC/NA MIC TOUCAN Efficacy Ratio (TER),[9]; S. aureus NCTC 12493 (MRSA),1250
same,MIC,"[9]; S. aureus NCTC 12493 (MRSA), 18 h, TOUCAN as NA equivalent",5 mg/L
same,TOUCAN % Growth inhibition,"[9]; S. aureus NCTC 12493 (MRSA), mean ± SD, n = 3",85.3%
same,associated toxicity to non-targeted bacteria,"[10]; S. epidermidis (control), FIG. 1d",minimal associated toxicity
same,MIC,"[10]; S. epidermidis ATCC 35984, 18 h, TOUCAN as NA equivalent",>40 mg/L
same,TOUCAN % Growth inhibition,"[10]; S. epidermidis ATCC 35984, mean ± SD, n = 3",3.6 ± 2.0%
same,"growth inhibition, dose response","[10]; S. epidermidis, all concentrations tested, FIG. 5",No growth inhibition
same,MIC,"[11]; 18 h, TOUCAN as NA equivalent",>40 mg/L
same,TOUCAN % Growth inhibition,"[11]; mean ± SD, n = 3",0 ± 0.00%
same,MIC,"[12]; 18 h, TOUCAN as NA equivalent",>40 mg/L
same,TOUCAN % Growth inhibition,"[12]; mean ± SD, n = 3",4.9 ± 3.1%
same,MIC,"[13]; 18 h, TOUCAN as NA equivalent",>40 mg/L
same,TOUCAN % Growth inhibition,"[13]; mean ± SD, n = 3",0 ± 0.00%
same,MIC,"[14]; 18 h, TOUCAN as NA equivalent",>40 mg/L
same,TOUCAN % Growth inhibition,"[14]; mean ± SD, n = 3",12.5 ± 5.7%
same,MIC,"[15]; 18 h, TOUCAN as NA equivalent",>40 mg/L
same,TOUCAN % Growth inhibition,"[15]; mean ± SD, n = 3",8.3 ± 0.6%
same,growth inhibition,"[16]; S. aureus (target), FIG. 1d",high growth inhibition
same,bacterial growth inhibition,"[16]; S. aureus cultures, optical density (OD) over 18 h, FIG. 1b",96%
same,inhibition of bacterial growth (therapeutic efficacy),"[16]; combinations of the R-S-D moieties, FIG. 1c",more than 99%
same,inhibition on chromogenic media,[17]; 5 μg/mL,partially inhibited
same,inhibition on chromogenic media,[17]; 10 and 20 μg/mL,completely inhibited
same,viability on chromogenic media,[18],remained viable
same,killing of pancreatic cancer cells (viability),[19],efficient in killing
same,therapeutic effect in breast cancer cells (viability),[20],slightly higher
